US20160376286A1, “Pyrimidin-4-one derivatives and their use in the tratement, amelioration or prevention of a viral disease” (priority 2011, published 2016)

What follows are compounds tested on influenza A virus A/Aichi/2/68 (H3N2) (assay: Cytopathic effect (CPE) assay H3N2 in MDCK cells). Conditions: Influenza A virus, H3N2, MDCK, read-out: CPE H3N2 reduction (%).
Assay type: cell-based, influenza A virus (A/Aichi/2/68 (H3N2)); MDCK cells
Protocol: A possible measure of the […] antiviral activity of the compounds having the formula I or II is the CPE assay disclosed herein. […] In this connection, the reduction in the virus-mediated cytopathic effect (CPE) upon treatment with the compounds was calculated as follows: The cell viability of infected-treated and uninfected-treated cells was determined using an ATP-based cell viability assay (Promega). The response in relative luminescent units (RLU) of infected-untreated samples was subtracted from the response (RLU) of the infected-treated samples and then normalized to the viability of the corresponding uninfected sample resulting in % CPE reduction.
The influenza A virus (IAV) was obtained from American Tissue Culture Collection (A/Aichi/2/68 (H3N2); VR-547). Virus stocks were prepared by propagation of virus on Mardin-Darby canine kidney (MDCK; ATCC CCL-34) cells and infectious titres of virus stocks were determined by the 50% tissue culture infective dose (TCID50) analysis as described in Reed, L. J., and H. Muench. 1938, Am. J. Hyg. 27:493-497.
MDCK cells were seeded in 96-well plates at 2×10^4 cells/well using DMEM/Ham's F-12 (1:1) medium containing 10% foetal bovine serum (FBS), 2 mM L-glutamine and 1% antibiotics (all from PAA). Until infection the cells were incubated for 5 hrs at 37° C., 5.0% CO2 to form a -80% confluent monolayer on the bottom of the well. Each test compound was dissolved in DMSO and generally tested at 25 μM and 250 μM. In those cases where the compounds were not soluble at that concentration they were tested at the highest soluble concentration. The compounds were diluted in infection medium (DMEM/Ham's F-12 (1:1) containing 5 μg/ml trypsin, and 1% antibiotics) for a final plate well DMSO concentration of 1%. The virus stock was diluted in infection medium (DMEM/Ham's F-12 (1:1) containing 5 μg/m1Trypsin, 1% DMSO, and 1% antibiotics) to a theoretical multiplicity of infection (M01) of 0.05.
After removal of the culture medium and one washing step with PBS, virus and compound were added together to the cells. In the wells used for cytotoxicity determination (i.e. in the absence of viral infection), no virus suspension was added. Instead, infection medium was added. Each treatment was conducted in two replicates. After incubation at 37° C., 5% CO2 for 48 hrs, each well was observed microscopically for apparent cytotoxicity, precipitate formation, or other notable abnormalities. Then, cell viability was determined using
CellTiter-Glo luminescent cell viability assay (Promega). The supernatant was removed carefully and 65 μl of the reconstituted reagent were added to each well and incubated with gentle shaking for 15 min at room temperature. Then, 60 μl of the solution was transferred to an opaque plate and luminescence (RLU) was measured using Synergy HT plate reader (Biotek).
Relative cell viability values of uninfected-treated versus uninfected-untreated cells were used to evaluate cytotoxicity of the compounds. Substances with a relative viability below 80% at the tested concentration were regarded as cytotoxic and retested at lower concentrations.
Reduction in the virus-mediated cytopathic effect (CPE) upon treatment with the compounds was calculated as follows: The response (RLU) of infected-untreated samples was subtracted from the response (RLU) of the infected-treated samples and then normalized to the viability of the corresponding uninfected sample resulting in % CPE reduction.

Row | Compound | inhibition at 50 µM
1 | O=C(NO)c1cc(NS(=O)(=O)Cc2cccc(Cl)c2)ccn1 | 60.1%

Same assay, conditions: Influenza A virus, H3N2, MDCK; activity conc 50 (μM); read-out: CPE H3N2 reduction (%)

Row | Compound | inhibition at 50 µM
2 | O=C(NO)c1cc(NS(=O)(=O)Cc2cc(Cl)cc(Cl)c2)ccn1 | 9.3%
3 | O=C(NO)c1cc(NS(=O)(=O)Cc2cccc(C(F)(F)F)c2)ccn1 | -5.8%
4 | O=C(NO)c1cc(NS(=O)(=O)Cc2ccccc2Cl)ccn1 | -1.5%
5 | O=C(NO)c1cc(NS(=O)(=O)Cc2ccc(Cl)cc2)ccn1 | -3.88%
6 | O=C(NO)c1cc(NS(=O)(=O)Cc2cccc(Br)c2)ccn1 | 2.29%

Same assay, conditions: activity conc 1

Row | Compound | CPE H3N2 reduction (%)
7 | CCONC(=O)c1cc(NCc2cccc(OCc3ccccc3)c2)ccn1.Cl | 1.2%
8 | O=C(c1cc(-c2ccccc2)ccn1)N(O)Cc1ccc(F)cc1 | −3.2%
9 | O=C(c1cc(C2=CCCCC2)ccn1)N(O)Cc1ccccc1 | 3.4%

Same assay, conditions: activity conc 2

Row | Compound | CPE H3N2 reduction (%)
10 | O=C(c1cc(N2CCCCC2)ccn1)N(O)CCCc1ccccc1 | 7.7%
11 | CC(C)c1cccc(-c2ccc(C(=O)NO)nc2)c1 | −2.1%
12 | O=C(c1cc2ccccc2cn1)N(O)CCCc1ccccc1 | 4.4%
13 | CC(C)c1cccc(-c2ccc(C(=O)N(O)CCc3ccccc3)nc2)c1 | 2.1%
14 | O=C(c1cc(-c2ccc(Cl)cc2)ccn1)N(O)Cc1ccccc1 | −6.7%
15 | COC1=CC=C(c2ccnc(C(=O)N(O)Cc3ccccc3)c2)CC1 | −2.5%
16 | CC(C)(C)OC(=O)N1C=C(c2ccnc(C(=O)N(O)Cc3ccccc3)c2)CCC1 | 3.9%
17 | CC(C)(C)OC(=O)N1C2C=C(c3ccnc(C(=O)N(O)Cc4ccccc4)c3)CC1CC2 (stereo not drawn) | −5.3%

Same assay, conditions: activity conc 5

Row | Compound | CPE H3N2 reduction (%)
18 | Cl.O=C(NO)c1cc(N2CCCCC2)ccn1 | −4.1%
19 | O=C(c1ccc(N2CCCC2)cn1)N(Cc1ccccc1)OCc1ccccc1 | −2.7%
20 | O=C(c1cc2ccccc2cn1)N(Cc1ccccc1)OCc1ccccc1 | 1.3%
21 | O=C(NOCc1ccccc1)c1cc2ccccc2cn1 | −1.5%
22 | O=C(c1ccc(N2CCCCC2)cn1)N(O)Cc1ccccc1 | −3.4%
23 | CN(Cc1ccccc1)c1ccnc(C(=O)N(O)Cc2ccccc2)c1 | 3.8%
24 | O=C(NO)c1cc(-c2ccc(Cl)cc2)ccn1 | 26.6%
25 | O=C(c1cc(-c2ccc(Cl)c(Cl)c2)ccn1)N(O)Cc1ccccc1 | 8.1%
26 | NC(=O)c1cccc(-c2ccnc(C(=O)N(O)Cc3ccccc3)c2)c1 | −2.7%
27 | CC(C)(C)OC(=O)N1CC=C(c2ccnc(C(=O)N(O)Cc3ccccc3)c2)CC1 | 1.2%
28 | NC(=O)c1ccc(-c2ccnc(C(=O)N(O)Cc3ccccc3)c2)cc1 | −2.5%
29 | CN(C)S(=O)(=O)c1cccc(-c2ccnc(C(=O)N(O)Cc3ccccc3)c2)c1 | −1.8%
30 | O=C(c1cc(-c2cccc(CO)c2)ccn1)N(O)Cc1ccccc1 | 7.7%
31 | CNC(=O)c1cccc(-c2ccnc(C(=O)N(O)Cc3ccccc3)c2)c1 | −7.5%
32 | CN(c1ccnc(C(=O)NO)c1)S(=O)(=O)Cc1ccccc1 | −1.7%
33 | CC(C)(C)OC(=O)N1CCC=C(c2ccnc(C(=O)N(O)Cc3ccccc3)c2)C1 | 10.2%
34 | O=C(c1cc(N2CCCCC2)cc[n+]1[O-])N(O)Cc1ccccc1 | −1.83%

Same assay, conditions: activity conc 10

Row | Compound | CPE H3N2 reduction (%)
35 | Cc1cccc(-c2ccc(C(=O)N(O)Cc3ccccc3)nc2)c1 | 15.5%
36 | O=C(c1cc(-c2ccccc2)ccn1)N(O)Cc1ccccc1 | −9.3%

Same assay, conditions: activity conc 12

Row | Compound | CPE H3N2 reduction (%)
37 | O=C(c1ccc(-c2ccccc2)cn1)N(O)Cc1ccccc1 | 13.4%
38 | O=C(NO)c1ccc(-c2ccccc2)cn1 | 21.7%

Same assay, conditions: activity conc 20

Row | Compound | CPE H3N2 reduction (%)
39 | CCONC(=O)c1ccc(-c2cccc(CN(C)CCCc3ccccc3)c2)cn1.Cl | 1.6%
40 | O=C(NOCc1ccccc1)c1ccc(N2CCCC2)cn1 | −8.7%
41 | O=C(c1cc2ccccc2cn1)N(O)CCc1ccccc1 | −1.8%
42 | CC(C)(C)OC(=O)N1CCC(c2ccnc(C(=O)N(O)Cc3ccccc3)c2)CC1 | 31.3%
43 | Cl.O=C(NO)c1cc(NS(=O)(=O)Cc2cc(Cl)cc(Cl)c2)ccn1 | 28.9%
44 | Cl.O=C(c1cc(N2CCC(F)(F)C2)ccn1)N(O)Cc1ccccc1 | 4.6%

Same assay, conditions: activity conc 50 (μM)

Row | Compound | CPE H3N2 reduction (%)
45 | CCONC(=O)c1cc(N2CCOCC2)ccn1.Cl | 1.3%
46 | CCONC(=O)c1cc(N)ccn1.Cl | 10.5%
47 | CCONC(=O)c1ccccn1 | 12.5%
48 | CCONC(=O)c1ccc2ccccc2n1 | −2.2%
49 | O=C(c1cc(NS(=O)(=O)Cc2ccccc2)ccn1)N(O)Cc1ccccc1 | 6.2%
50 | O=C(NO)c1cc(N2CCOCC2)ccn1 | −7.1%
51 | O=C(c1cc(NS(=O)(=O)c2ccccc2)ccn1)N(O)Cc1ccccc1 | −5.2%
52 | C[C@@H]1CN(c2ccnc(C(=O)N(O)Cc3ccccc3)c2)C[C@H](C)O1 | 10.5%
53 | CN(C)C1CCN(c2ccnc(C(=O)N(O)Cc3ccccc3)c2)CC1 | 12.3%
54 | O=C(c1cc(N2CCCC(F)(F)C2)ccn1)N(O)Cc1ccccc1 | 8.9%
55 | CN1CCN(c2ccnc(C(=O)N(O)Cc3ccccc3)c2)CC1 | 2.4%
56 | O=C(c1cc(N2CCC(N3CCCC3)CC2)ccn1)N(O)Cc1ccccc1 | 10.7%
57 | CC(C)(C)OC(=O)NC1CCN(c2ccnc(C(=O)N(O)Cc3ccccc3)c2)CC1 | 8.3%
58 | CN(C)CCNC(=O)c1cccc(-c2ccnc(C(=O)N(O)Cc3ccccc3)c2)c1 | 8.9%
59 | O=C(c1cc(N2CCC(N3CCCCC3)CC2)ccn1)N(O)Cc1ccccc1 | 18.8%
60 | NC1CCN(c2ccnc(C(=O)N(O)Cc3ccccc3)c2)CC1 | 3.2%
61 | O=C(c1cc(N2CCC3(CC2)OCCO3)ccn1)N(O)Cc1ccccc1 | 9.5%
62 | CN(C)C(=O)c1cccc(-c2ccnc(C(=O)N(O)Cc3ccccc3)c2)c1 | 5.3%
63 | CC(C)(C)OC(=O)N1CCN(c2ccnc(C(=O)N(O)Cc3ccccc3)c2)CC1 | 34%

Row | Compound | CPE H3N2 reduction (%)
64 | CC1(C)C=C(c2ccnc(C(=O)N(O)Cc3ccccc3)c2)CC(C)(C)N1 | 2.8%
65 | Cl.O=C(c1cc(C2CCNCC2)ccn1)N(O)Cc1ccccc1 | −1.4%
66 | Cl.O=C(NO)c1cc(NS(=O)(=O)Cc2ccc(F)cc2)ccn1 | −1.4%
67 | Cl.Cl.O=C(c1cc(N2CCNCC2)ccn1)N(O)Cc1ccccc1 | −4.5%
68 | Cl.O=C(NO)c1cc(NS(=O)(=O)Cc2cccc(F)c2)ccn1 | −2.4%
69 | O=C(c1cc(C2=CCC3(CC2)OCCO3)ccn1)N(O)Cc1ccccc1 | 5.4%
70 | Cl.O=C(c1cc(N2CCC(F)(F)CC2)ccn1)N(O)Cc1ccccc1 | −3.2%
71 | CN1CC=C(c2ccnc(C(=O)N(O)Cc3ccccc3)c2)CC1 | 10.6%
72 | Cl.O=C(c1cc(NS(=O)(=O)Cc2ccc(F)cc2)ccn1)N(O)Cc1ccccc1 | −1.1%
73 | Cl.O=C(c1cc(C2=CCCNC2)ccn1)N(O)Cc1ccccc1 | 9.5%
74 | CN1CCN(c2ccnc(C(=O)N(C)O)c2)CC1 | 2.6%
75 | CN(O)C(=O)c1cc(N2CCOCC2)ccn1 | 5.7%
76 | Cl.O=C(c1cc(NS(=O)(=O)Cc2cccc(F)c2)ccn1)N(O)Cc1ccccc1 | 9.6%
77 | O=C(c1cc(C2CCCNC2)ccn1)N(O)Cc1ccccc1 (stereo not drawn) | 6.1%
78 | Cl.O=C(c1cc(N2CCC(F)CC2)ccn1)N(O)Cc1ccccc1 | 34%
79 | Cl.O=C(c1cc(NS(=O)(=O)Cc2cccc(Cl)c2)ccn1)N(O)Cc1ccccc1 | 9.5%
80 | Cl.O=C(c1cc(NS(=O)(=O)Cc2cccc(C(F)(F)F)c2)ccn1)N(O)Cc1ccccc1 | 22.4%
81 | O=C(NO)c1ccccn1 | 3.15%
